Reference: PubChem BioAssay AID248 (DTP/NCI, 2004)
Values joined by “and” are separate entries in the source; they are usually repeats but may differ in a detail not shown here. Equal values may be shown once. Toxic doses and inconclusive results are not listed. Rule as the data show it: active = T/C of 150% or more; inactive = T/C below 125%.

Test system: L1210 leukemia ip in BDF1 mice, survival T/C
Test: NCI In Vivo Anticancer Drug Screen. Data for tumor model L1210 Leukemia (intraperitoneal) in B6D2F1 (BDF1) mice
Settings: endpoint: mean survival time, higher = longer survival
Method in brief: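 Tumor cells were implanted, animals were treated, and survival was followed. The result divides the treated measurement by the vehicle-control measurement.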

[1] = dose: 400.0 mg/kg/injection, schedule: Q01DX001 (ip), vehicle: saline
[2] = dose: 50.0 mg/kg/injection, schedule: Q01DX009 (ip), vehicle: saline with Tween-80
[3] = dose: 100.0 mg/kg/injection, schedule: Q04DX002 (ip), vehicle: saline with Tween-80
[4] = dose: 200.0 mg/kg/injection, schedule: Q01DX009 (ip), vehicle: saline with Tween-80
[5] = dose: 200.0 mg/kg/injection, schedule: Q04DX002 (ip), vehicle: saline with Tween-80
[6] = dose: 100.0 mg/kg/injection, schedule: Q04DX003 (ip), vehicle: Klucel (hydroxypropylcellulose) (HPC)
[7] = dose: 200.0 mg/kg/injection, schedule: Q04DX003 (ip), vehicle: Klucel (hydroxypropylcellulose) (HPC)
[8] = dose: 400.0 mg/kg/injection, schedule: Q04DX003 (ip), vehicle: Klucel (hydroxypropylcellulose) (HPC)
[9] = dose: 100.0 mg/kg/injection, schedule: Q01DX001 (ip), vehicle: carboxymethylcellulose (CMC)
[10] = dose: 200.0 mg/kg/injection, schedule: Q01DX001 (ip), vehicle: carboxymethylcellulose (CMC)
[11] = dose: 400.0 mg/kg/injection, schedule: Q01DX001 (ip), vehicle: carboxymethylcellulose (CMC)
[12] = dose: 100.0 mg/kg/injection, schedule: Q01DX009 (ip), vehicle: saline with Tween-80
[13] = dose: 400.0 mg/kg/injection, schedule: Q01DX009 (ip), vehicle: saline with Tween-80
[14] = dose: 100.0 mg/kg/injection, schedule: Q01DX009 (ip), vehicle: Klucel (hydroxypropylcellulose) (HPC)
[15] = dose: 100.0 mg/kg/injection, schedule: Q01DX009 (ip), vehicle: saline
[16] = dose: 100.0 mg/kg/injection, schedule: Q04DX003 (ip), vehicle: saline
[17] = dose: 200.0 mg/kg/injection, schedule: Q01DX009 (ip), vehicle: Klucel (hydroxypropylcellulose) (HPC)
[18] = dose: 200.0 mg/kg/injection, schedule: Q04DX003 (ip), vehicle: saline
[19] = dose: 400.0 mg/kg/injection, schedule: Q01DX009 (ip), vehicle: Klucel (hydroxypropylcellulose) (HPC)
[20] = dose: 100.0 mg/kg/injection, schedule: Q01DX001 (ip), vehicle: saline
[21] = dose: 200.0 mg/kg/injection, schedule: Q01DX001 (ip), vehicle: saline
[22] = dose: 25.0 mg/kg/injection, schedule: Q01DX009 (ip), vehicle: saline
[23] = dose: 50.0 mg/kg/injection, schedule: Q01DX009 (ip), vehicle: saline

Measured: T/C

Clc1ccccc1/C=N/Nc1c2ccccc2nc2ccccc12
inactive: [1] 87 % of control

CCOC(=O)N/N=C/C(Br)=C\c1ccccc1
inactive: [2] 93 % of control | [3] 101 % of control | [4] 87 % of control | [5] 96 % of control

O=S(=O)(CCO)c1ccc2ccccc2c1
inactive: dose: 100.0 mg/kg/injection, schedule: Q01DX001 (ip), vehicle: Klucel (hydroxypropylcellulose) (HPC) 101 % of control | [6] 101 % of control | dose: 200.0 mg/kg/injection, schedule: Q01DX001 (ip), vehicle: Klucel (hydroxypropylcellulose) (HPC) 98 % of control | [7] 97 % of control | dose: 400.0 mg/kg/injection, schedule: Q01DX001 (ip), vehicle: Klucel (hydroxypropylcellulose) (HPC) 98 % of control | [8] 105 % of control

Cc1cc(OC(=O)Nc2ccccc2)ccc1Cl
inactive: dose: 100.0 mg/kg/injection, schedule: Q04DX002 (ip), vehicle: saline + alcohol 100 % of control | dose: 200.0 mg/kg/injection, schedule: Q04DX002 (ip), vehicle: saline + alcohol 100 % of control | dose: 400.0 mg/kg/injection, schedule: Q04DX002 (ip), vehicle: saline + alcohol 96 % of control

O=C1NC(=O)C(Cc2ccccc2)(Cc2ccccc2)C(=O)N1Cc1ccccc1
inactive: [9] 90 % of control | [10] 90 % of control | [11] 98 % of control

CCCCCCCCCCCCC1CCCC(C)C1 (stereo not given)
inactive: dose: 25.0 mg/kg/injection, schedule: Q01DX009 (ip), vehicle: saline with Tween-80 89 % of control | [2] 99 % of control | [12] 92 % of control | [3] 105 % of control and 90 % of control | [5] 104 % of control and 90 % of control | [13] 90 % of control | dose: 800.0 mg/kg/injection, schedule: Q04DX002 (ip), vehicle: saline with Tween-80 97 % of control

CCOC(=O)c1ccc(=O)[nH]c1
inactive: [14] 102 % of control | [15] 88 % of control | [6] 96 % of control | [16] 116 % of control and 100 % of control | [17] 100 % of control | dose: 200.0 mg/kg/injection, schedule: Q01DX009 (ip), vehicle: saline 96 % of control | [7] 98 % of control | [18] 101 % of control and 100 % of control | [19] 95 % of control | dose: 400.0 mg/kg/injection, schedule: Q01DX009 (ip), vehicle: saline 93 % of control | [8] 90 % of control | dose: 400.0 mg/kg/injection, schedule: Q04DX003 (ip), vehicle: saline 104 % of control and 96 % of control

C=CCN1CCCCC1C1(c2ccccc2)CCCC1 (stereo not given)
inactive: dose: 75.0 mg/kg/injection, schedule: Q01DX001 (ip), vehicle: acid diluted with saline 92 % of control

COc1ccc(CCNC(=O)Cc2ccc(OC)c(OC)c2)cc1OC
inactive: dose: 12.5 mg/kg/injection, schedule: Q04DX003 (ip), vehicle: saline with Tween-80 94 % of control | dose: 25.0 mg/kg/injection, schedule: Q04DX003 (ip), vehicle: saline with Tween-80 110 % of control | dose: 50.0 mg/kg/injection, schedule: Q04DX003 (ip), vehicle: saline with Tween-80 100 % of control | [20] 98 % of control | [14] 94 % of control | dose: 100.0 mg/kg/injection, schedule: Q01DX009 (ip), vehicle: saline sonified 100 % of control | [12] 86 % of control | [6] 105 % of control | dose: 100.0 mg/kg/injection, schedule: Q04DX003 (ip), vehicle: saline with Tween-80 107 % of control | [21] 92 % of control | [17] 96 % of control | dose: 200.0 mg/kg/injection, schedule: Q01DX009 (ip), vehicle: saline sonified 100 % of control | [4] 95 % of control | [7] 112 % of control | dose: 200.0 mg/kg/injection, schedule: Q04DX003 (ip), vehicle: saline with Tween-80 94 % of control | [1] 93 % of control | [19] 98 % of control | dose: 400.0 mg/kg/injection, schedule: Q01DX009 (ip), vehicle: saline sonified 90 % of control | [13] 91 % of control | [8] 104 % of control | dose: 400.0 mg/kg/injection, schedule: Q04DX003 (ip), vehicle: saline with Tween-80 92 % of control

CCOC(OCC)c1ccccc1 (tested in a mixture with another compound)
inactive: [12] 100 % of control | [4] 100 % of control | [13] 94 % of control

CC(Cl)CN(Cc1c(O)ccc2ccccc12)CC(C)Cl (stereo not given)
inactive: [9] 96 % of control | [10] 107 % of control | [11] 101 % of control

COC1OC(CO)C(O)C(OC)C1NC(C)=O (stereo not given)
inactive: [20] 103 % of control | [21] 106 % of control | [1] 101 % of control

CC1(C)OC2/C(=N/O)C3COC(O3)C2O1 (stereo not given)
inactive: [20] 101 % of control | [21] 95 % of control | [1] 106 % of control

NNC(=O)c1ccncc1
inactive: dose: 12.5 mg/kg/injection, schedule: Q01DX009 (ip), vehicle: saline 98 % of control | dose: 19.25 mg/kg/injection, schedule: Q01DX Z (ip), vehicle: carboxymethylcellulose (CMC) 103 % of control | [22] 107 % of control | dose: 25.0 mg/kg/injection, schedule: Q04DX003 (ip), vehicle: saline 108 % of control | dose: 38.5 mg/kg/injection, schedule: Q01DX Z (ip), vehicle: carboxymethylcellulose (CMC) 93 % of control | [23] 104 % of control | dose: 50.0 mg/kg/injection, schedule: Q04DX003 (ip), vehicle: saline 101 % of control | dose: 77.0 mg/kg/injection, schedule: Q01DX Z (ip), vehicle: carboxymethylcellulose (CMC) 106 % of control | [20] 98 % of control | [15] 100 % of control | [16] 101 % of control | dose: 154.0 mg/kg/injection, schedule: Q01DX Z (ip), vehicle: carboxymethylcellulose (CMC) 108 % of control | [18] 86 % of control

CCOC(=O)CC(=O)C1CCCCC1
inactive: dose: 50.0 mg/kg/injection, schedule: Q01DX001 (ip), vehicle: carboxymethylcellulose (CMC) 95 % of control | [9] 95 % of control | [10] 97 % of control | [11] 95 % of control

O=C(O)c1ccncc1C(=O)c1csc2ccccc12
inactive: [22] 108 % of control | [23] 102 % of control | dose: 50.0 mg/kg/injection, schedule: Q04DX003 (ip), vehicle: acetone 99 % of control | [15] 94 % of control | dose: 100.0 mg/kg/injection, schedule: Q04DX003 (ip), vehicle: acetone 99 % of control

Cc1ccc(NC(=O)COc2ccc([N+](=O)[O-])cc2Cl)cc1S(=O)(=O)F
inactive: dose: 87.5 mg/kg/injection, schedule: Q04DX003 (ip), vehicle: gum acacia 97 % of control | dose: 175.0 mg/kg/injection, schedule: Q04DX003 (ip), vehicle: gum acacia 100 % of control | dose: 350.0 mg/kg/injection, schedule: Q04DX003 (ip), vehicle: gum acacia 94 % of control
